Test results as given in US4415570A, “Nicotinic acid derivatives” (Nippon Shinyaku Co. Ltd., priority 1981, dated 1983).

Experiments:
[1] = test system: reversed passive Arthus reaction; experiment: Reversed passive Arthus reaction (RPAR) inhibition, leakage area of Evans Blue; format: in vivo, rats; conditions: for RPAR inhibitory action: oral administration
Method: Activity of RPAR inhibition of the compounds of the present invention was measured in the following manner. Anti-BSA serum was obtained from rabbits that were previously administered bovine serum albumin ("BSA"). The anti-BSA serum was applied to four parts of the skin of the abdomens of rats previously treated with BSA and Evans Blue. The anti-BSA serum and the BSA and Evans Blue were administered to the rats subcutaneously. […] The local inflammation was determined by examining each of the four inflamed parts and measuring for each part the area from which there was leakage of Evans Blue. The data from the test animals were compared to the control animals, and a reduction in the leakage area of 20% or more was defined as a positive effect. The RPAR inhibition activity is reported as the number of positive effects per animal, divided by 4. Thus, two positive effects would be an RPAR of 2/4.

carrageenin edema = carrageenin edema inhibiting activity; format: in vivo; conditions: intraperitoneal injection, 50 mg/kg
Source text: The RPAR inhibition activity of the compounds (I) of the present invention is not related to its anti-inflammatory activity.

[2] = Table 2, 200 mg/kg p.o., number of positive effects out of 4 parts
[3] = Table I, 200 mg/kg body weight orally, number of positive effects (leakage area reduced 20% or more) out of 4 parts
[4] = Table 2, 500 mg/kg p.o., number of positive effects out of 4 parts

For `COc1ccc2c(c1)c(CC(=O)O)c(C)n2C(=O)c1ccc(Cl)cc1` [indomethacin], the RPAR inhibitory action ([1]; 10 mg/kg) was “no RPAR inhibitory action”.

`Nc1nc(NC(=O)c2cccnc2)nc(-c2ccccc2I)n1` [Compound 17] was tested, and the “RPAR Inhibition” value [1, 2] was 1/4.

For `O=C(Nc1nc(-c2cc(Cl)ccc2Cl)nc(N2CCCCC2)n1)c1cccnc1` [Compound 8], the “RPAR Inhibition” value [1, 3] was 3/4.

With `CC(=O)Oc1ccccc1C(=O)O` [aspirin] the RPAR inhibitory action ([1]; 200 mg/kg) was “no RPAR inhibitory action”.

In the case of `O=C(Nc1nc(-c2ccc(Cl)cc2)nc(N2CCOCC2)n1)c1cccnc1` [Compound 2], the “RPAR Inhibition” value [1, 3] is reported as 2/4.

For `O=C(Nc1nc(-c2ccc(Cl)cc2)nc(N2CCCC2)n1)c1cccnc1` [Compound 1], the “RPAR Inhibition” value [1, 3] was 2/4.

For `Nc1nc(N)nc(-c2cc(Cl)ccc2Cl)n1` [Compound 11], the “RPAR inhibition activity (in words)” value [1] was “do not exhibit RPAR inhibition activity at all” and the “RPAR Inhibition” value [1, 4] was 0/4.

For `O=C(Nc1nc(-c2cc(Cl)ccc2Cl)nc(N2CCOCC2)n1)c1cccnc1` [Compound 9], the “carrageenin edema inhibiting activity” value (carrageenin edema) was 21%, the “RPAR inhibition activity (in words)” value [1] was “strongly inhibits RPAR” and the “RPAR Inhibition” value [1, 3] was 4/4.

In the case of `Nc1nc(NC(=O)c2cccnc2)nc(-c2ccccc2)n1` [Compound 13], the “RPAR inhibition activity (in words)” value [1] is reported as “little or no RPAR inhibition activity”, the “RPAR Inhibition” value [1, 2] is reported as 0/4 and the “RPAR Inhibition” value [1, 4] is reported as 2/4.

In the case of `Nc1nc(N)nc(-c2ccc(Cl)cc2)n1` [Compound 12], the “RPAR inhibition activity (in words)” value [1] is reported as “do not exhibit RPAR inhibition activity at all” and the “RPAR Inhibition” value [1, 4] is reported as 0/4.

`Nc1nc(NC(=O)c2cccnc2)nc(-c2c(Cl)cccc2Cl)n1` [Compound 14] was tested, and the “RPAR Inhibition” value [1, 2] was 0/4.

With `O=C(Nc1nc(-c2ccccc2Cl)nc(N2CCCCC2)n1)c1cccnc1` [Compound 3] the “RPAR Inhibition” value [1, 3] was 2/4.

With `Nc1nc(NC(=O)c2cccnc2)nc(-c2cccc(Cl)c2)n1` [Compound 16] the “RPAR Inhibition” value [1, 2] was 0/4.

In the case of `CN(C)c1nc(NC(=O)c2cccnc2)nc(-c2ccc(F)cc2)n1` [Compound 10], the “RPAR Inhibition” value [1, 3] is reported as 3/4.

With `O=C(Nc1nc(-c2ccccc2Cl)nc(N2CCOCC2)n1)c1cccnc1` [Compound 4] the “RPAR Inhibition” value [1, 3] was 2/4.

In the case of `O=C(Nc1nc(-c2ccccc2Cl)nc(N2CCCC2)n1)c1cccnc1` [Compound 5], the “RPAR Inhibition” value [1, 3] is reported as 2/4.

In the case of `CCCCC1C(=O)N(c2ccccc2)N(c2ccccc2)C1=O` [phenylbutazone], the RPAR inhibitory action ([1]; 100 mg/kg) is reported as “no RPAR inhibitory action”.

In the case of `CCN(CC)c1nc(NC(=O)c2cccnc2)nc(-c2ccc(Cl)c(Cl)c2)n1` [Compound 7], the “RPAR Inhibition” value [1, 3] is reported as 3/4.

`CCCCNc1nc(NC(=O)c2cccnc2)nc(-c2ccc(Cl)c(Cl)c2)n1` [Compound 6] was tested, and the “RPAR Inhibition” value [1, 3] was 2/4.

With `Nc1nc(NC(=O)c2cccnc2)nc(-c2ccc(Cl)cc2)n1` [Compound 15] the “carrageenin edema inhibiting activity” value (carrageenin edema) was 56.8%, the “RPAR inhibition activity (in words)” value [1] was “no RPAR inhibition activity” and the “RPAR Inhibition” value [1, 2] was 0/4.
